From article PMC9025560, “A Comparison of Evans Blue and 4-(p-Iodophenyl)butyryl Albumin Binding Moieties on an Integrin αvβ6 Binding Peptide” (Pharmaceutics, 2022)
Like-named read-outs stand apart in the source and are kept apart here.

What was measured:
[1] = Biodistribution in mice bearing BxPC-3 xenograft tumors; format: in vivo; settings: female, athymic nu/nu-nude, mouse, in vivo, total radioactivity; for tissue uptake at 4 h: 4 h p.i.; for tissue uptake at 24 h: 24 h p.i.; for tissue uptake at 48 h: 48 h p.i.
Protocol: All animal procedures conformed to the Animal Welfare Act and were approved by the University of California, Davis Institutional Animal Care and Use Committee. Female athymic nu/nu-nude mice (6–8 weeks old) were purchased from Charles River Laboratories (Wilmington, MA, USA) and provided food and water on an ad libitum basis. BxPC-3 xenografts were implanted according to previous methods. Briefly, BxPC-3 cells were evaluated by flow cytometry to confirm integrin αvβ6 expression levels, injected subcutaneously into the left flank [5 million in 100 μL of a 1:1 mixture of serum-free RPMI and GFR Matrigel (Corning, New York, NY, USA)], and allowed to grow for approximately 3 weeks until tumors reached a diameter of 0.5–1 cm.
For biodistribution studies the [^64Cu]1–4 (3.7–5.55 MBq) in PBS (100 μL, pH 7.2) was injected intravenously (i.v.) via catheter into the tail vein. Following a conscious uptake period, the mice were anesthetized (5% isoflurane), euthanized, and dissected ([^64Cu]1 and [^64Cu]2, n = 3/radiolabeled peptide/time point; 4, 24, and 48 h p.i.; the 72 h time point was obtained from the imaging animals after the 72 h PET/CT scans; compounds [^64Cu]3 and [^64Cu]4, n = 2/radiolabeled compound at 4 h p.i.). Tissues were rapidly collected, weighed, and radioactivity measured with a γ-counter. Decay-corrected radioactivity concentrations are expressed as the percentage of injected dose per gram of tissue (% ID/g). Data are reported as mean ± standard deviation (SD) (Figure S20, S21 and S25).

human serum protein = assay: Human serum protein binding by ultrafiltration; format: in vitro ADME
Protocol: (§1) Serum protein binding of [^64Cu]1 and [^64Cu]2 was assessed following the previously reported method. Peptides [^64Cu]1 and [^64Cu]2 were evaluated by ultrafiltration using Centrifree Ultrafiltration devices (EMD) according to the manufacturer’s recommendations. Experiments were carried out in triplicate. The Centrifree Ultrafiltration devices were pretreated with PBS containing Tween 20 (5% v/v), followed by triplicate rinses with PBS. An aliquot of each peptide [^64Cu]1 or [^64Cu]2 in PBS (≤25 μL, 20–60 KBq) was thoroughly mixed with 0.5 mL of serum at 37 °C in a microfuge tube. The mixture was incubated at 37 °C for 5 min, and an aliquot (50 μL) was transferred to a tube for γ-counting. The remaining sample was transferred to a Centrifree Ultrafiltration device and centrifuged for 40 min at 1500 (RCF) at ambient temperature (20–24 °C). An aliquot (50 μL) of the filtrate was transferred to a tube for γ-counting. For each radiolabeled peptide, a blank was run using 0.5 mL PBS/Tween 20 (5% v/v) instead of serum (n = 3) to determine non-specific binding. Following γ-counting, the protein-bound radioactivity was calculated by subtracting the counts measured in the filtrate aliquot (i.e., not protein-bound) from the counts in the corresponding serum aliquot. The data are expressed as mean ± standard deviation of fraction of radioactivity bound to protein after subtraction of non-specific binding determined in the blank.

mouse serum protein = assay: Mouse serum protein binding by ultrafiltration; format: in vitro ADME; settings: 37 °C
Protocol: as §1, with “For each radiolabeled peptide, a blank was run using 0.5 mL PBS/Tween 20 (5% v/v) instead of serum (n = 3) to determine non-specific binding.” left out

[2] = Stability in mouse serum at 37 °C; format: in vitro ADME; settings: mouse, mouse serum, read-out: Stability in mouse serum, % intact
Protocol: For serum stability, mouse serum or human serum (0.5 mL, both purchased from Sigma-Aldrich) was combined with an aliquot of each of the peptides [^64Cu]1 and [^64Cu]2 (≤25 μL, 14.8–22.2 MBq) and incubated at 37 °C. At each time point (1, 4, and 24 h) an aliquot (50–200 μL) was taken, proteins precipitated with ethanol, and removed by pelleting at 1500 (RCF) for 4 min. The ethanol solution was diluted with water (1 mL) and analyzed by RP-HPLC as previously described.

[3] = iv, i.v., read-out: Blood uptake
[4] = iv, i.v., read-out: Bone uptake
[5] = iv, i.v., read-out: Brain uptake
[6] = iv, i.v., read-out: BxPC-3 Tumor uptake
[7] = iv, i.v., read-out: Fecal Matter radioactivity
[8] = iv, i.v., read-out: Gall Bladder uptake
[9] = iv, i.v., read-out: Heart uptake
[10] = iv, i.v., read-out: Kidneys uptake
[11] = iv, i.v., read-out: Lg. Intestines uptake
[12] = iv, i.v., read-out: Liver uptake
[13] = iv, i.v., read-out: Lung uptake
[14] = iv, i.v., read-out: Muscle uptake
[15] = iv, i.v., read-out: Pancreas uptake
[16] = iv, i.v., read-out: Skin uptake
[17] = iv, i.v., read-out: Sm. Intestines uptake
[18] = iv, i.v., read-out: Spleen uptake
[19] = iv, i.v., read-out: Stomach uptake
[20] = iv, i.v., read-out: Urine radioactivity

SMILES: Cc1cc(-c2ccc(NC(=O)CCC(=O)NCCCC[C@H](NC(=O)CN3CCN(CC(=O)O)CCN(CC(=O)O)CCN(CC(=O)O)CC3)C(=O)NCCOCCOCCOCCOCCOCCOCCOCCOCCOCCOCCOCCOCCOCCOCCOCCOCCOCCOCCOCCOCCOCCOCCOCCOCCOCCOCCOCCOCCC(=O)N[C@@H](CC(N)=O)C(=O)N[C@@H](C)C(=O)N[C@H](C(=O)N3CCC[C@H]3C(=O)N[C@@H](CC(N)=O)C(=O)N[C@@H](CC(C)C)C(=O)N[C@@H](CCCNC(=N)N)C(=O)NCC(=O)N[C@@H](CC(=O)O)C(=O)N[C@@H](CC(C)C)C(=O)N[C@@H](CCC(N)=O)C(=O)N[C@H](C(=O)N[C@@H](CC(C)C)C(=O)N[C@@H](C)C(=O)N[C@@H](CCC(N)=O)C(=O)N[C@@H](CCCNC(=N)N)C(=O)N[C@H](C(=O)N[C@@H](C)C(=O)N[C@@H](CCCNC(=N)N)C(=O)N[C@H](C(=O)NCCOCCOCCOCCOCCOCCOCCOCCOCCOCCOCCOCCOCCOCCOCCOCCOCCOCCOCCOCCOCCOCCOCCOCCOCCOCCOCCOCCOCCC(N)=O)[C@@H](C)O)C(C)C)C(C)C)C(C)C)c(C)c2)ccc1N=Nc1ccc2c(S(=O)(=O)O)cc(S(=O)(=O)O)c(N)c2c1O [[^64Cu]1, [^64Cu]Cu DOTA-EB-αvβ6-BP, metal not drawn]
- tissue uptake at 4 h [1, 3]: 1.3 ± 0.31 %ID/g
- tissue uptake at 4 h [1, 4]: 0.44 ± 0.04 %ID/g
- tissue uptake at 4 h [1, 5]: 0.09 ± 0.02 %ID/g
- tissue uptake at 4 h [1, 6]: 5.29 ± 0.59 %ID/g
- tissue uptake at 4 h [1, 7]: 3.03 ± 0.67 %ID/g
- tissue uptake at 4 h [1, 8]: 2.12 ± 0.51 %ID/g
- tissue uptake at 4 h [1, 9]: 0.99 ± 0.08 %ID/g
- tissue uptake at 4 h [1, 10]: 75.5 ± 7.26 %ID/g
- tissue uptake at 4 h [1, 11]: 4.13 ± 0.1 %ID/g
- tissue uptake at 4 h [1, 12]: 1.64 ± 0.2 %ID/g
- tissue uptake at 4 h [1, 13]: 2.71 ± 0.57 %ID/g
- tissue uptake at 4 h [1, 14]: 0.67 ± 0.1 %ID/g
- tissue uptake at 4 h [1, 15]: 0.46 ± 0.06 %ID/g
- tissue uptake at 4 h [1, 16]: 1.56 ± 0.34 %ID/g
- tissue uptake at 4 h [1, 17]: 4.72 ± 0.55 %ID/g
- tissue uptake at 4 h [1, 18]: 0.32 ± 0.28 %ID/g
- tissue uptake at 4 h [1, 19]: 6.41 ± 0.64 %ID/g
- tissue uptake at 4 h [1, 20]: 19.6 ± 10.5 %ID/g
- tissue uptake at 24 h [1, 3]: 0.33 ± 0.01 %ID/g
- tissue uptake at 24 h [1, 4]: 0.34 ± 0.13 %ID/g
- tissue uptake at 24 h [1, 5]: 0.09 ± 0.01 %ID/g
- tissue uptake at 24 h [1, 6]: 5.03 ± 0.97 %ID/g
- tissue uptake at 24 h [1, 7]: 2.85 ± 0.55 %ID/g
- tissue uptake at 24 h [1, 8]: 1.85 ± 0.27 %ID/g
- tissue uptake at 24 h [1, 9]: 0.92 ± 0.05 %ID/g
- tissue uptake at 24 h [1, 10]: 40.5 ± 7.7 %ID/g
- tissue uptake at 24 h [1, 11]: 3.46 ± 0.45 %ID/g
- tissue uptake at 24 h [1, 12]: 2.09 ± 0.1 %ID/g
- tissue uptake at 24 h [1, 13]: 2.79 ± 1.62 %ID/g
- tissue uptake at 24 h [1, 14]: 0.5 ± 0.2 %ID/g
- tissue uptake at 24 h [1, 15]: 0.48 ± 0.03 %ID/g
- tissue uptake at 24 h [1, 16]: 1.08 ± 0.3 %ID/g
- tissue uptake at 24 h [1, 17]: 2.78 ± 0.31 %ID/g
- tissue uptake at 24 h [1, 18]: 0.56 ± 0.16 %ID/g
- tissue uptake at 24 h [1, 19]: 4.18 ± 0.54 %ID/g
- tissue uptake at 24 h [1, 20]: 5.01 ± 0.29 %ID/g
- tissue uptake at 48 h [1, 3]: 0.33 ± 0.1 %ID/g
- tissue uptake at 48 h [1, 4]: 0.3 ± 0.08 %ID/g
- tissue uptake at 48 h [1, 5]: 0.12 ± 0.02 %ID/g
- tissue uptake at 48 h [1, 6]: 4 ± 1.51 %ID/g
- tissue uptake at 48 h [1, 7]: 2.34 ± 0.89 %ID/g
- tissue uptake at 48 h [1, 8]: 1.75 ± 0.61 %ID/g
- tissue uptake at 48 h [1, 9]: 1.02 ± 0.17 %ID/g
- tissue uptake at 48 h [1, 10]: 26.2 ± 5.89 %ID/g
- tissue uptake at 48 h [1, 11]: 2.65 ± 0.05 %ID/g
- tissue uptake at 48 h [1, 12]: 2.59 ± 0.51 %ID/g
- tissue uptake at 48 h [1, 13]: 2.33 ± 0.32 %ID/g
- tissue uptake at 48 h [1, 14]: 0.49 ± 0.07 %ID/g
- tissue uptake at 48 h [1, 15]: 0.41 ± 0.2 %ID/g
- tissue uptake at 48 h [1, 16]: 1.12 ± 0.18 %ID/g
- tissue uptake at 48 h [1, 17]: 1.85 ± 0.07 %ID/g
- tissue uptake at 48 h [1, 18]: 0.5 ± 0.18 %ID/g
- tissue uptake at 48 h [1, 19]: 3.02 ± 0.52 %ID/g
- tissue uptake at 48 h [1, 20]: 3.92 ± 1.05 %ID/g
- tissue uptake at 72 h ([1]; iv, 72 h p.i., i.v., read-out: Blood uptake): 0.35 ± 0.08 %ID/g
- tissue uptake at 72 h ([1]; iv, 72 h p.i., i.v., read-out: Bone uptake): 0.25 ± 0.13 %ID/g
- tissue uptake at 72 h ([1]; iv, 72 h p.i., i.v., read-out: Brain uptake): 0.16 ± 0.04 %ID/g
- tissue uptake at 72 h ([1]; iv, 72 h p.i., i.v., read-out: BxPC-3 Tumor uptake): 3.32 ± 0.46 %ID/g
- tissue uptake at 72 h ([1]; iv, 72 h p.i., i.v., read-out: Fecal Matter radioactivity): 1.81 ± 0.74 %ID/g
- tissue uptake at 72 h ([1]; iv, 72 h p.i., i.v., read-out: Gall Bladder uptake): 1.75 ± 0.65 %ID/g
- tissue uptake at 72 h ([1]; iv, 72 h p.i., i.v., read-out: Heart uptake): 1.15 ± 0.2 %ID/g
- tissue uptake at 72 h ([1]; iv, 72 h p.i., i.v., read-out: Kidneys uptake): 20 ± 6.91 %ID/g
- tissue uptake at 72 h ([1]; iv, 72 h p.i., i.v., read-out: Lg. Intestines uptake): 1.95 ± 0.29 %ID/g
- tissue uptake at 72 h ([1]; iv, 72 h p.i., i.v., read-out: Liver uptake): 2.36 ± 0.51 %ID/g
- tissue uptake at 72 h ([1]; iv, 72 h p.i., i.v., read-out: Lung uptake): 1.88 ± 0.11 %ID/g
- tissue uptake at 72 h ([1]; iv, 72 h p.i., i.v., read-out: Muscle uptake): 0.44 ± 0.12 %ID/g
- tissue uptake at 72 h ([1]; iv, 72 h p.i., i.v., read-out: Pancreas uptake): 0.59 ± 0.12 %ID/g
- tissue uptake at 72 h ([1]; iv, 72 h p.i., i.v., read-out: Skin uptake): 0.88 ± 0.12 %ID/g
- tissue uptake at 72 h ([1]; iv, 72 h p.i., i.v., read-out: Sm. Intestines uptake): 1.38 ± 0.18 %ID/g
- tissue uptake at 72 h ([1]; iv, 72 h p.i., i.v., read-out: Spleen uptake): 0.58 ± 0.16 %ID/g
- tissue uptake at 72 h ([1]; iv, 72 h p.i., i.v., read-out: Stomach uptake): 2.02 ± 0.16 %ID/g
- tissue uptake at 72 h ([1]; iv, 72 h p.i., i.v., read-out: Urine radioactivity): 3.17 ± 1.58 %ID/g
- tissue uptake at 72 h ([1]; 72 h, read-out: GI uptake): < 3.2 %ID/g
- tissue uptake ([1]; throughout 4–72 h, read-out: Liver uptake throughout): < 3 %ID/g
- Binding to human serum protein (human serum protein; 37 °C, ultrafiltration): 53.4 ± 0.9%
- Serum albumin binding (human serum protein; abstract, serum species not stated): 53–63%
- Binding to mouse serum protein (mouse serum protein): 41.9 ± 1.1%
- remaining at 1 h ([2]; 1 h): 78%
- remaining at 4 h ([2]; 4 h): 58%
- remaining at 24 h ([2]; 24 h): 14%
